Measurements: patent US8574899B2, “Methods for augmentation collection of placental hematopoietic stem cells and uses thereof” (priority 2010, dated 2013)
Marks after values point to notes of the source that are not given here.

Key:
human placenta = conditions: 6-8 hour vascular perfusion of placenta; cited from earlier work
human term placentas = assay: Yield of TNC, CD34+CD45dim cells and CFU from placenta infused with cell-liberating compounds; assay type: cell-based; conditions: infusion in PBS+, incubated 3-8 hours at 37° C., mean, N = 5; for Yield of colony-forming unit cells (CFU) obtained from placenta related to cord blood unit from the same donor: Methocult 12-14 days
Text: HSCs and HPCs of the current invention were collected from 30 human term placentas by use of different cell-liberating compounds. Following IRB approval and informed consent, human term placentas were obtained from healthy females following caesarian section. Freshly obtained human placentas, which had been subjected to a conventional cord blood recovery process by draining substantially all of the cord blood from the placenta were used. Cord blood was collected from umbilical cord using standard techniques. Placentas were first infused with an anticoagulant/vasodilator solution (Heparin 30 […] 0.05 mg/ml) at a temperature of 20° C. For infusion procedures, artery and vein of umbilical cord were further cannulated and connected to a reservoir. Pressure in the umbilical cord artery and vein was constantly measured using Baxter pressure transducers (Protocol Systems, Portland, Oreg.). Constant temperature of infusate was maintained using heat exchange unit connected to temperature-controlled water bath. Placentas was infused with 100 ml phosphate buffered saline with additives: heparin (10 […]-acetyl-cysteine (1 mM), gentamycin (0.05 mg/ml) (PBS+) (Experiment 1), or 100 ml PBS+ with 3 mg/L AMD3100 (Sigma, St. Louis, Mo.) (Experiment 2); or 100 ml PBS+ with 1 mg/ml BIO5192 (Experiment 3). BIO5192 was supplied by AnorMED (Vancouver, BC) as a sterile powder and reconstituted in pH 7.0 ethanol:propylene glycol:water (10:36:54). In Experiment 4 100 ml PBS+ with 1 mg/ml Trypsin and 0.1 mg/ml Collagenase I (Sigma, St. Louis, Mo.) was infused into the placental artery or vein. In Experiment 5 100 ml PBS+ with Etoposide (1 mM) was infused into placental vein. […] Following incubation, fluid with cells was drained out of placental vessels and umbilical vein was infused with 100 ml of PBS and later flushed out 4 times via the umbilical artery. Collected cell suspension was centrifuged for 10 min at 1000 rpm, cells at the bottom collected and reconstituted in 10 ml PBS with heparin for further analyses. The following analyses were performed on cord blood and cell suspensions obtained from placenta: number of total nucleated cells determined by flow cytometry, number of CD34^+ and CD34^+CD45^dim cells determined by immunostaining with antibodies to CD34 and CD45, flow cytometry performed using FACS Calibur flow cytometer (BD Biosciences) and FlowJo software. Amounts of colony-forming unit cells were determined by culturing cells for 12-14 days in Methocult® medium (Stem Cell Technologies, Vancouver, Canada) according to manufacturer's instruction. Data obtained from cells collected from placental circulation were normalized to same variables obtained by analyses of cord blood cells (cord blood unit) collected from the corresponding placenta and are presented as percent of cord blood unit.

CXCR4 = CXCR4 (Homo sapiens, UniProt P61073); conditions: in vivo; cited from earlier work
Sequence of CXCR4 (P61073 whole entry, species assumed): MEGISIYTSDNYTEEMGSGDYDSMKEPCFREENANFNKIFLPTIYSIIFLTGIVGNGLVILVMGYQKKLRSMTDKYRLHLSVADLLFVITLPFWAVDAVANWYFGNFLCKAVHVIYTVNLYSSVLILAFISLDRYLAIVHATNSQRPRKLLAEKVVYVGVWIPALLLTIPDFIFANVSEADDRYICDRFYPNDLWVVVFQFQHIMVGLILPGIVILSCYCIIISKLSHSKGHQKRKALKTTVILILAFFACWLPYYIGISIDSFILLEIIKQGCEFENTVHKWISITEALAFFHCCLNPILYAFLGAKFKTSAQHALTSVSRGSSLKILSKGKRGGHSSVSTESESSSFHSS

α4β1 integrin = α4β1 integrin (Homo sapiens, UniProt P05556+P13612); conditions: unactivated and activated forms of α4β1 integrin; cited from earlier work
[1] = target: T1, α4-subunit of the α4β1 (VLA-4) and α4β7 integrins (Homo sapiens, UniProt P13612); conditions: MS patients after anti-α4 integrin antibody administration; cited from earlier work
T1 construct: host or cells: MS patients (in vivo, endogenous protein)

## c1cc(CN2CCCNCCNCCCNCC2)ccc1CN1CCCNCCNCCCNCC1 [AMD3100, 1,1′-[1,4-phenylene-bis(methylene)]-bis-1,4,8,11-tetraazacyclotetradecane]
Human placenta
  Increase of yield of HSC from perfusate as compared to cord blood unit HSCs: several-fold
Human term placentas
  Yield of colony-forming unit cells (CFU) obtained from placenta related to cord blood unit from the same donor: 332* %
  Yield of CD34+CD45dim cells obtained from placenta related to cord blood unit from the same donor: 412* %
  Yield of TNC obtained from placenta related to cord blood unit from the same donor: 31%
CXCR4
  Mobilization of hematopoietic stem cells from the bone marrow to the bloodstream: strong inducer of mobilization of hematopoietic stem cells

## Cc1ccccc1NC(=O)Nc1ccc(CC(=O)N(C)[C@@H](CC(C)C)C(=O)NCC[C@H](NC(=O)[C@@H]2CCCN2S(=O)(=O)c2cc(Cl)cc(Cl)c2)C(=O)O)cc1 [BIO5192]
α4β1 integrin
  Kd: < 0.01 nM
Human term placentas
  Yield of colony-forming unit cells (CFU) obtained from placenta related to cord blood unit from the same donor: 423* %
  Yield of CD34+CD45dim cells obtained from placenta related to cord blood unit from the same donor: 524* %
  Yield of TNC obtained from placenta related to cord blood unit from the same donor: 24%

## COc1cc([C@@H]2c3cc4c(cc3[C@@H](O[C@@H]3O[C@@H]5CO[C@@H](C)O[C@H]5[C@H](O)[C@H]3O)[C@H]3COC(=O)[C@H]23)OCO4)cc(OC)c1O [Etoposide]
Human term placentas
  Yield of colony-forming unit cells (CFU) obtained from placenta related to cord blood unit from the same donor: 211* %
  Yield of CD34+CD45dim cells obtained from placenta related to cord blood unit from the same donor: 185* %
  Yield of TNC obtained from placenta related to cord blood unit from the same donor: 18%

## natalizumab: recombinant humanized neutralizing IgG4 monoclonal antibody that binds the α4-subunit of α4β1 (VLA-4) and α4β7 integrins
[1]
  Circulating HSPCs: rapid and sustained increase in circulating HSPCs
